Patent publication US12428408B2, “Fused heterocyclic mescaline derivatives” (Enveric Biosciences Canada Inc., priority 2022, dated 2025)
Like-named read-outs stand apart in the source and are kept apart here.

How the values were obtained:
[1] = biological target: T1, NET (h) (Homo sapiens, UniProt P23975); assay: Competition assay to measure binding affinity at norepinephrine transporter (NET); details: test ligand 10 μM; [3H]nisoxetine 1 nM
T1 construct: host or cells: CHO cells

[2] = biological target: T2, 5-HT1A receptor (Homo sapiens, UniProt P08908); assay: 5-HT1A receptor radioligand competition assay (SPA); assay type: binding; details: for 5-HT1A receptor binding, binding curve in words: FIGS. 35C-35L
T2 construct: purchased Perkin Elmer 6110501400UA
T2 sequence (P08908 1-422): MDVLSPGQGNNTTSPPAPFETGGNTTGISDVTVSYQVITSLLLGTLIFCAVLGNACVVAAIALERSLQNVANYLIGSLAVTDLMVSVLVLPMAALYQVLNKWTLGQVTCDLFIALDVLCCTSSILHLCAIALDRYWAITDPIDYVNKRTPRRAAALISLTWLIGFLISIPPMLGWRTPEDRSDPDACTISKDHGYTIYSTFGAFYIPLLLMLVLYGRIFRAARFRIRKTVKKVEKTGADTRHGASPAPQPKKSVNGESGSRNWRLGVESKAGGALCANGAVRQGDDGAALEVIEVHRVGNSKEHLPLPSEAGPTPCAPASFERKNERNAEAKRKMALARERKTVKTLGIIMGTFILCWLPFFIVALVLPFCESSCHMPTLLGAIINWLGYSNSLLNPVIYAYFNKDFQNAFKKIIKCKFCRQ

[3] = biological target: T3, MT1 (ML1A) (h) (Homo sapiens, UniProt P48039); assay: Competition assay to measure binding affinity at MT1 receptor; details: test ligand 10 μM; [125I]2-iodomelatonin 0.01 nM
T3 construct: host or cells: CHO cells
T3 sequence (P48039 whole entry): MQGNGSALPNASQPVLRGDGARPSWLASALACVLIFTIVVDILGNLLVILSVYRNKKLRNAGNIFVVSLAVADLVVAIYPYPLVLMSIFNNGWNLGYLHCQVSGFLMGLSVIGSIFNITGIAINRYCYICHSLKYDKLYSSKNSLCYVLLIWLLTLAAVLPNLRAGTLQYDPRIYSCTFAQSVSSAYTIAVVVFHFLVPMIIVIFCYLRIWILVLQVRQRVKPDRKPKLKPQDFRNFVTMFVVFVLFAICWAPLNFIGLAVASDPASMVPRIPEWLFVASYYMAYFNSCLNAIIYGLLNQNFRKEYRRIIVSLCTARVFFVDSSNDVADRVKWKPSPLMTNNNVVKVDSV

[4] = biological target: T4, 5-HT2C (h) (Homo sapiens, UniProt P28335); assay: Competition assay to measure binding affinity at 5-HT2C receptor; details: test ligand 10 μM; [125I](±)DOI 0.1 nM
T4 construct: host or cells: HEK-293 cells
T4 sequence (P28335 33-458): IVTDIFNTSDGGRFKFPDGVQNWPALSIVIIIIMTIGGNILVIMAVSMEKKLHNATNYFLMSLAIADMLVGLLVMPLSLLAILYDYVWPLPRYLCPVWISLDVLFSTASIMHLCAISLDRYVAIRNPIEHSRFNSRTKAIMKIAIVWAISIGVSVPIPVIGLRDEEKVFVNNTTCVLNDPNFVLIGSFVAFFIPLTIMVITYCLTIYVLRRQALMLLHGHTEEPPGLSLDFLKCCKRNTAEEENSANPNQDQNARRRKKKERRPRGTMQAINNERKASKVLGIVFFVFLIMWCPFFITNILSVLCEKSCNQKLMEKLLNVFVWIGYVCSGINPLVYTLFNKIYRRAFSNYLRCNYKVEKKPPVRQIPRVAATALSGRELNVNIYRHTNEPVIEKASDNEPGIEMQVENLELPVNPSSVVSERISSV

[5] = biological target: T5, D3 (h) (Homo sapiens, UniProt P35462); assay: Competition assay to measure binding affinity at D3 receptor; details: test ligand 10 μM; [3H]methylspiperone […]
T5 construct: host or cells: CHO cells
T5 sequence (P35462 whole entry): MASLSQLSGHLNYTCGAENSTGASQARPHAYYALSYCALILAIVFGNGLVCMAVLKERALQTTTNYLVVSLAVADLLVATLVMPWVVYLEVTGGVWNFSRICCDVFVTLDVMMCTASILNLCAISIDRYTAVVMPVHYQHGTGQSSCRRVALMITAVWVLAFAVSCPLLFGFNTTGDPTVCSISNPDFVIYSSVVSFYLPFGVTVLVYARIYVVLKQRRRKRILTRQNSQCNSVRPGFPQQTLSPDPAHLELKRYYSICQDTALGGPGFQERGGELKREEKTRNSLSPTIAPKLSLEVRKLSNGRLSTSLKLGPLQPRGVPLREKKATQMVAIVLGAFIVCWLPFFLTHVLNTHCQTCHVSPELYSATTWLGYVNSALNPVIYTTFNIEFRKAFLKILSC

[6] = biological target: 5-HT2A receptor (Homo sapiens, UniProt P28223); assay: 5-HT2A receptor radioligand competition assay (SPA)
Sequence of 5-HT2A receptor (P28223 whole entry): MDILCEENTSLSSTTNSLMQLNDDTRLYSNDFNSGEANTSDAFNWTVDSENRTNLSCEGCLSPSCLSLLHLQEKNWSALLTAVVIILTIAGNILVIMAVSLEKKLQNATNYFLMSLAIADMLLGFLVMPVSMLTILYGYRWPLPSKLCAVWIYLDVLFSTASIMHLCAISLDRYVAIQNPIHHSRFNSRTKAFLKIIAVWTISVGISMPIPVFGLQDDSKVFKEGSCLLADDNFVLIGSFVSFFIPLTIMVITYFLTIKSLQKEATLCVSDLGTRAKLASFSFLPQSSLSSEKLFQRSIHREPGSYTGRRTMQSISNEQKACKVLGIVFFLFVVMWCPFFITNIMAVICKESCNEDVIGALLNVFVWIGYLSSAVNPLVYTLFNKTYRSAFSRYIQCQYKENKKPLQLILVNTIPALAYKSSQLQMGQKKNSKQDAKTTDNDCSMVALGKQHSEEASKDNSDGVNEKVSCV

[7] = biological target: T6, DAT (h) (Homo sapiens, UniProt Q01959); assay: Competition assay to measure binding affinity at dopamine transporter (DAT); details: test ligand 10 μM; [3H]BTCP 4 nM
T6 construct: host or cells: CHO cells
T6 sequence (Q01959 whole entry): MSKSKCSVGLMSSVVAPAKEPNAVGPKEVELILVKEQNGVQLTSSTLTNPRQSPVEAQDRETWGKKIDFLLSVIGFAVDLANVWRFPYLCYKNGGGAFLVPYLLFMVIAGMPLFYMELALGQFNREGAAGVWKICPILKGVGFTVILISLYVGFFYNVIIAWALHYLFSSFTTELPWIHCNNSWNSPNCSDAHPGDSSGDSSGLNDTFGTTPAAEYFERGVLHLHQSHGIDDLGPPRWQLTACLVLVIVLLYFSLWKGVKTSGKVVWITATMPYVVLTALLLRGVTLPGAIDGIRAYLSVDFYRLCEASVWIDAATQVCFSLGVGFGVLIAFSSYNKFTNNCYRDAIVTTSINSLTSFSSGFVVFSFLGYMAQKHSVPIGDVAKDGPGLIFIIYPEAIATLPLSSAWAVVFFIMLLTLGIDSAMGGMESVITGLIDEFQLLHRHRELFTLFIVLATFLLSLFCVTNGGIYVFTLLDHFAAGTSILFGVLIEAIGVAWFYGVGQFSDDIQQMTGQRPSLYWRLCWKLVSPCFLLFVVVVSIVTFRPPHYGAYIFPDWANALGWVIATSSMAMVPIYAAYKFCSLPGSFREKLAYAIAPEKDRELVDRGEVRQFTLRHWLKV

[8] = biological target: T7, D2 (h) (Homo sapiens, UniProt P14416); assay: Competition assay to measure binding affinity at D2L receptor; details: test ligand 10 μM; [3H]methylspiperone 0.3 nM
T7 construct: host or cells: HEK-293 cells
T7 sequence (P14416 whole entry): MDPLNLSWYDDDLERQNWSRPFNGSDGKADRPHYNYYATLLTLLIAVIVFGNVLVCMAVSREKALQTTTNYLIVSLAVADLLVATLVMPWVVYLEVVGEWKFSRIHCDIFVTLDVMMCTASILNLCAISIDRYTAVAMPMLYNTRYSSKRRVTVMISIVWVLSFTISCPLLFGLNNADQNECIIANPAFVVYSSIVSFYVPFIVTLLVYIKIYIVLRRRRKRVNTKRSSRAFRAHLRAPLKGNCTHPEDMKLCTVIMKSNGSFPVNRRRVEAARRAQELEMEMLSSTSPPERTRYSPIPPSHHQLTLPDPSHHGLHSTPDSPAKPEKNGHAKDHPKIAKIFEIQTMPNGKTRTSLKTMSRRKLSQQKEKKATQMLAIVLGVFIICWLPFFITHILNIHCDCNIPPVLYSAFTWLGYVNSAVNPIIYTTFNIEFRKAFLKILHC

[9] = test system: C57BL/6-Elite male and female mice; assay: Ear-Scratch Response (ESR) assay; assay type: in vivo, mouse; details: i.p. 6 mg/kg, 15-to-30-minute window following drug administration
[10] = biological target: T8, 5-HT1D (r) (Rattus norvegicus, UniProt P28565); assay: Competition assay to measure binding affinity at 5-HT1D receptor; details: test ligand 10 μM; [3H]serotonin 1 nM
T8 construct: host or cells: CHO cells
T8 sequence (P28565 whole entry): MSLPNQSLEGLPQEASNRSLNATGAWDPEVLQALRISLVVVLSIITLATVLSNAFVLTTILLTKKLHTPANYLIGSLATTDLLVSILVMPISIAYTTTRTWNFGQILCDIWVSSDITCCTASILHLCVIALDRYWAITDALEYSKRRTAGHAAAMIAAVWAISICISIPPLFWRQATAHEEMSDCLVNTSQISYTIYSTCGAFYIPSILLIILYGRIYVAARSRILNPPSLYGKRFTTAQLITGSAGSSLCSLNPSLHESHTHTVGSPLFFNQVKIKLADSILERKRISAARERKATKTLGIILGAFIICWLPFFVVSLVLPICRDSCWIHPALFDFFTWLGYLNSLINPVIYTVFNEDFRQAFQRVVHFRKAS

[11] = biological target: T9, human serotonin transporter (SERT) (Homo sapiens, UniProt P31645); assay: biochemical; assay type: binding
T9 construct: purchased PerkinElmer RBHSTM400UA
T9 sequence (P31645 whole entry): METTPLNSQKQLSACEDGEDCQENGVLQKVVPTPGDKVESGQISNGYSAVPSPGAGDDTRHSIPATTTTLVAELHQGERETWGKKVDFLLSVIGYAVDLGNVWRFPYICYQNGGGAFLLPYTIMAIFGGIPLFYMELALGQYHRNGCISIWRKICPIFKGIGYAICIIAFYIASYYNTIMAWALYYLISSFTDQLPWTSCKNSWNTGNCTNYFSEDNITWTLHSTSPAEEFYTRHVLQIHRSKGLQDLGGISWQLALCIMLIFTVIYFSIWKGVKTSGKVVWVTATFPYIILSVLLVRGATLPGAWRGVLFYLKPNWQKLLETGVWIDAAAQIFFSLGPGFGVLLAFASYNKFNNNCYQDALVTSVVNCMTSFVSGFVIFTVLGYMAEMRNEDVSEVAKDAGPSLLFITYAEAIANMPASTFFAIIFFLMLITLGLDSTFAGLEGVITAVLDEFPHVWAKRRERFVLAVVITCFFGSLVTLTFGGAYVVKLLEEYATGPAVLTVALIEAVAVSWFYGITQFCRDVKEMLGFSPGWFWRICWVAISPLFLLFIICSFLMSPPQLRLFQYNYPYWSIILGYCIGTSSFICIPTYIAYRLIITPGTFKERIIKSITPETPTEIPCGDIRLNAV

[12] = biological target: T10, alpha2A (h) (Homo sapiens, UniProt P08913); assay: Competition assay to measure binding affinity at alpha2A receptor; details: test ligand 10 μM, [3H]RX 821002 1 nM; for inhibition at 10 µM: read-out: α-2A, percent of control-specific binding
T10 construct: host or cells: CHO cells
T10 sequence (P08913 1-465): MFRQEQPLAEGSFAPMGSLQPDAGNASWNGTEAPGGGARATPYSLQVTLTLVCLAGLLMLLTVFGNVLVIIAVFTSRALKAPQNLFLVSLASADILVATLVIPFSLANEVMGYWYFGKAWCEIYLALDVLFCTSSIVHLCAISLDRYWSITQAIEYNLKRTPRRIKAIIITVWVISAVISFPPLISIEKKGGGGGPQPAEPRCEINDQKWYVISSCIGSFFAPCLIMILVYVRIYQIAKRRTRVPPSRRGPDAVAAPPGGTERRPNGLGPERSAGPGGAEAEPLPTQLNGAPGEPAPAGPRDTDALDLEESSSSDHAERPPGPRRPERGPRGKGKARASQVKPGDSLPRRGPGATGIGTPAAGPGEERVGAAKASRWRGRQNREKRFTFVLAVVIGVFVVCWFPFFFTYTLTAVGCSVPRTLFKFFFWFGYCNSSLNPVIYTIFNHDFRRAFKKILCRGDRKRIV

[13] = biological target: T11, 5-HT2B (h) (Homo sapiens, UniProt P41595); assay: Competition assay to measure binding affinity at 5-HT2B receptor; details: test ligand 10 μM; [3H]mesulergine 2 nM
T11 construct: host or cells: CHO cells
T11 sequence (P41595 whole entry): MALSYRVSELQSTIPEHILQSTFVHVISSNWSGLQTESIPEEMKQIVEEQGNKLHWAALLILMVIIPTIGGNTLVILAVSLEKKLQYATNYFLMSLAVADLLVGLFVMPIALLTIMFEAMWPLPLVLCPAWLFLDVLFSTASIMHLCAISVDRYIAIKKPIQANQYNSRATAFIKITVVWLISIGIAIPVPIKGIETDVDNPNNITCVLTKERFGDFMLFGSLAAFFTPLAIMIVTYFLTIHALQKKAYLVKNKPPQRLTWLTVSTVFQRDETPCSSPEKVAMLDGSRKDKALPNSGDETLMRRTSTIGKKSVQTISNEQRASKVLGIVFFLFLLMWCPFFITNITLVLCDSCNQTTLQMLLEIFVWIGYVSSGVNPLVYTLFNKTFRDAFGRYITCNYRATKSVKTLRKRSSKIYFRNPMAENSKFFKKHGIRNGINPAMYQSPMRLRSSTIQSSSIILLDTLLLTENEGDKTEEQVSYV

[14] = test system: C57BL/6-Elite male and female mice; assay: Head Twitch Response (HTR) assay; assay type: in vivo, mouse; details: i.p. 6 mg/kg, 15-to-30-minute window following drug administration
[15] = biological target: T12, 5-HT1B (h) (Homo sapiens, UniProt P28222); assay: Competition assay to measure binding affinity at 5-HT1B receptor; details: test ligand 10 μM; [3H]GR125743 1 nM
T12 construct: host or cells: Chem-1 (RBL) cells
T12 sequence (P28222 whole entry): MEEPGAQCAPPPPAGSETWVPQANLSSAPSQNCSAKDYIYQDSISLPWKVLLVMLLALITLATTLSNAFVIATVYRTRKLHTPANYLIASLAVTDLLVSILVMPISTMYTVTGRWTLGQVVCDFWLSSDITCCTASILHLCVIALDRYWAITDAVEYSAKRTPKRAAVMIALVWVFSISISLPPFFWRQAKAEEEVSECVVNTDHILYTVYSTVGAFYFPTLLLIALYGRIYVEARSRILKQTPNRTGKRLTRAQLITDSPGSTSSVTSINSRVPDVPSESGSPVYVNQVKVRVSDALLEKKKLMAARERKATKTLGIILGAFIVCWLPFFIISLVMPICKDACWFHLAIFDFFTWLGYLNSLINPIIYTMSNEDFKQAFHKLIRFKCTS

[16] = biological target: T13, 5-HT7 (h) (Homo sapiens, UniProt P34969); assay: Competition assay to measure binding affinity at 5-HT7 receptor; details: test ligand 10 μM; [3H]LSD 4 nM
T13 construct: host or cells: HEK-293 cells
T13 sequence (P34969 whole entry): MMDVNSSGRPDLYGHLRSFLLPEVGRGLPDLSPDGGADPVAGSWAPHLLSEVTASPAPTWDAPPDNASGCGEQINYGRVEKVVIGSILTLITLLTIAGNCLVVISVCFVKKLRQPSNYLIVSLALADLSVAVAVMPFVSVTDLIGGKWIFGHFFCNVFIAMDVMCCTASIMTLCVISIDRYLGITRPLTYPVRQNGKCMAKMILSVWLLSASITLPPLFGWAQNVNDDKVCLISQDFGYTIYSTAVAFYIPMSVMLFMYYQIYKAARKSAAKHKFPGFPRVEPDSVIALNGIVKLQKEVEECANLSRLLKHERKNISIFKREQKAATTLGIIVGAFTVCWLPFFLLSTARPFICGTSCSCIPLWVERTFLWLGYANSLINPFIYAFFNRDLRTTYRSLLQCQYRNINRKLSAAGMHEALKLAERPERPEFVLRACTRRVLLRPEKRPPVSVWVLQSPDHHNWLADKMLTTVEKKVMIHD

[17] = biological target: T2, 5-HT1A receptor; assay: Functional 5-HT1A receptor cAMP assay in CHO-K1/5-HT1A/Gα15 cells; assay type: cell-based
[18] = competition with 0.5 nM 8-hydroxy-DPAT [3H], test compound 3 nM to 1 mM, read-out: 5-HT1A, Ki
[19] = read-out: 5-HT2A, Ki, competition with 1 nM [3H]ketanserin, test compound 3 nM to 1 mM

Row | Compound | NET, percent of control-specific binding [1] [%] | Ki [2, 18] [µM] | MT1, percent of control-specific binding [3] [%] | HT2C, percent of control-specific binding [4] [%] | D3, percent of control-specific binding [5] [%] | Ki [6] [µM] | DAT, percent of control-specific binding [7] [%] | D2, percent of control-specific binding [8] [%] | incidences of ESR relative to vehicle-treated control mice [9] | HT1D, percent of control-specific binding [10] [%] | Ki [11] [µM] | inhibition at 10 µM [12] [%] | HT2B, percent of control-specific binding [13] [%] | incidences of HTR relative to vehicle-treated control mice [14] | HT1B, percent of control-specific binding [15] [%] | HT7, percent of control-specific binding [16] [%] | 5-HT1A receptor binding, binding curve in words [2] | SERT binding, binding curve in words [11] | Ki [6, 19] [µM] | Ki ([11]; read-out: SERT, Ki) [µM] | other results
1 | c1cc2c(cc1CCN1CCOCC1)OCO2 [A(VII)] | 0 | 24.1 | 0 | 4 | 4 | 6 | 18 | 3 | Elevated incidences of ESR | 0 | 29.9 | 5 | 12 | Elevated incidences of HTR | 0 | 14 | – | – | – | – | –
2 | CCCOc1c(OC)cc(CCN)cc1OC [proscaline, reference compound] | −9 | – | 3 | 97 | 4 | – | −2 | −11 | Elevated incidences of ESR | 25 | 251 | 40 | 85 | Elevated incidences of HTR | −13 | – | binding to 5-HT1A receptor | bind SERT to varying degrees | – | – | –
3 | CCOc1c(OC)cc(CCN)cc1OC [escaline] | 6 | 12.4 | 0 | 95 | 0 | – | 0 | 5 | Elevated incidences of ESR | 42 | – | – | 81 | Elevated incidences of HTR | 0 | 16 | binding to 5-HT1A receptor | bind SERT to varying degrees | 61 | 113 | α-2A, percent of control-specific binding [12]: 45%
4 | CC(Cc1ccc2c(c1)OCO2)NC1CCC1 (stereo not shown) [A(I)] | 62 | – | 2 | 28 | 24 | 517 | 98 | 15 | Elevated incidences of ESR | 0 | 1.1 | 35 | 37 | Elevated incidences of HTR | 0 | 5 | – | – | – | – | Ki [2]: 20.8 µM
5 | CNC(C)Cc1ccc2c(c1)OCO2 (stereo not shown) [MDMA, reference compound] | 3 | 11 | 1 | 96 | 18 | – | 28 | −10 | – | 18 | – | – | 85 | – | −21 | 58 | – | bind SERT to varying degrees | 39.9 | 5.8 | 5-HT1A receptor engagement (change in cAMP levels), in words ([17]; +5-HT1A cells, 4 μM forskolin, FIGS. 37B-37H): mild; EC50 ([17]; reduction of cAMP in +5-HT1A cells stimulated with 4 μM forskolin, 20 min, read-out: 5-HT1A, EC50): > 1000 µM; α-2A, percent of control-specific binding [12]: 27%
